Laboratory results taken from patent US20090291915A1, “Silicon Compounds and Their Use” (priority 2001, published 2009).

melting point: 80 to 82 °C
Structure (SMILES): COc1nc(NCCCN2CCOCC2)nc(OC)c1NC(=O)c1ccc(Oc2cncc([Si](C)(C)C)c2)o1
